From publication PMC5000080, “Mechanism of Histone H3K4me3 Recognition by the Plant Homeodomain of Inhibitor of Growth 3” (The Journal of Biological Chemistry, 2016)
Several values for one entry are separate records, joined by “and”; a condition that tells them apart may be missing. Identical values can stand only once. Entries after “also recorded” stand apart in the source; their conditions may differ.

What was measured:
[1] = target: T1, 15N-labeled ING3 PHD finger (Homo sapiens, UniProt Q9NXR8); experiment: 1H-15N HSQC NMR chemical shift perturbation; assay type: binding; details: 0.5 mM ING3 PHD, 20 mM Tris-HCl pH 6.8, 150 mM NaCl, 10 mM DTT, 25 °C; protein:peptide up to 1:2.61
T1 construct: The ING3 PHD finger region (residues 360–409) was amplified using PCR; GST (N, cleaved yes); made in house; host or cells: Escherichia coli Rosetta 2(DE3)pLysS
Experimental: Chemical shift perturbation experiments were conducted using 0.5 mM uniformly ^15N-labeled ING3 PHD finger in buffer containing 20 mM Tris-HCl, pH 6.8, 150 mM NaCl, 10 mM DTT, and 10% D2O. Titration mixtures of the ING3PHD protein and each of the modified histone peptides were prepared at concentration ratios of 1:0, 1:0.13, 1:0.26, 1:0.52, 1:1.3, and 1:2.61 in a volume of 35 μl. These mixtures were then transferred into 1.7-mm NMR tubes (Bruker).
Two-dimensional ^15N HSQC (heteronuclear single quantum coherence) experiments for all samples were run at 25 °C on a 600 MHz Bruker AVANCE III spectrometer equipped with a z-gradient 1.7-mm TCI probe at the National Magnetic Resonance Facility at Madison (NMRFAM) using the NMRBot software ([57]). The NMR data were collected with 1024 × 128 complex data points along the ^1H and ^15N dimensions, with acquisition times of 104 and 81 ms, respectively, using eight scans per free induction decay. Normalized chemical shift changes were calculated using Equation 2, [drawing 2] where ΔδH and ΔδN are the proton and nitrogen change in chemical shift in ppm, respectively.

ING3 PHD finger = target: T2, ING3 PHD finger (Homo sapiens, UniProt Q9NXR8); experiment: Tryptophan fluorescence titration of ING3 PHD finger with histone peptides; assay type: binding; details: 25 °C, 100 mM NaPO4 pH 7.5, 150 mM NaCl, 1 mM DTT, 10 μM ING3 PHD; average of three titrations; read-out: Trp fluorescence KD
T2 construct: The ING3 PHD finger region (residues 360–409) was amplified using PCR; GST (N, cleaved yes); made in house; host or cells: Escherichia coli Rosetta 2(DE3)pLysS
Experimental: Tryptophan fluorescence spectra of samples in tryptophan fluorescence buffer (100 mM NaPO4, pH 7.5, 150 mM NaCl, and 1 mM DTT) were collected at 25 °C using a Cary Eclipse fluorescence spectrometer (Varian). The samples contained 10 μM ING3 PHD finger protein and progressively increasing concentrations of histone H3 and H4 peptides. The 12- and 14-mer unlabeled histone tail peptides with an amidated C terminus and specific methylation modifications (H3K4me3, H3K4me2, H3K4me1, H3 unmodified, and H4 unmodified) were synthesized by the Peptide Core Facility at the University of Colorado at Denver. After excitation at 295 nm, emission spectra were recorded between 305 and 405 nm with 0.5-nm increments and at a 1-s integration time, averaging over three scans. Each titration experiment was repeated three times, and the average KD values were calculated using quadratic Equation 1, [drawing 1] where Fi is the fluorescence change; Fs is the fluorescence change at saturation of XT (the total protein concentration); and YT is the peptide concentration.

[2] = target: T3, wild-type ING3 PHD finger (Homo sapiens, UniProt Q9NXR8); experiment: ITC of wild-type ING3 PHD finger with histone peptides; assay type: binding; details: for Kd / ITC KD: wild-type ING3 PHD, 5 °C, 20 mM NaH2PO4 pH 7.0, 150 mM NaCl, triplicate, non-binding in duplicate
T3 construct: The ING3 PHD finger region (residues 360–409) was amplified using PCR; GST (N, cleaved yes); made in house; host or cells: Escherichia coli Rosetta 2(DE3)pLysS
Experimental: (§1) ITC measurements were recorded at 5 °C using a MicroCal iTC200 (GE Healthcare) as described previously ([55]). The wild-type and mutant ING3PHD proteins and histone peptide samples were prepared in a 20 mM NaH2PO4, pH 7.0, and 150 mM NaCl ITC buffer by dialysis for 24–48 h. Titration experiments were set up for optimal heat of binding reactions by using 100–200 μM ING3PHD in the sample cell, and between 1 and 5 mM histone peptide in the injection syringe. Control experiments were performed under identical conditions to determine the heat of dilution of the titrant peptides into the experimental buffer. This was subtracted from the experimental data as part of data analysis. Data were analyzed using the software ORIGIN 7.0 (OriginLab Corp.).

ING3 PHD D26H = target: T4, ING3 PHD D26H (Homo sapiens, UniProt Q9NXR8, D380H); experiment: ITC of ING3 PHD mutant with H3K4me3 peptide; assay type: binding; details: 5 °C, pH 7.0, triplicate
T4 construct: The ING3 PHD finger region (residues 360–409) was amplified using PCR; GST (N, cleaved yes); made in house; host or cells: Escherichia coli Rosetta 2(DE3)pLysS
Description: (§2) The ING3 PHD finger region (residues 360–409) was amplified using PCR and cloned into the pDEST15 vector encoding an N-terminal glutathione transferase (GST) tag using the Gateway cloning technology (Invitrogen) as described previously ([55]). ING3PHD proteins with single mutations at W31A, W47A, S15A, P43A, Y8A, and D26H were generated using the QuikChange® mutagenesis procedure (Stratagene) as described previously ([56]). The DNA sequence for wild-type and mutant proteins was verified at the University of Vermont DNA facility, and the plasmids were transformed into in Escherichia coli Rosetta^TM 2(DE3)pLysS competent cells (Novagen) for protein expression.
as §1, with “Corp.). All experiments where binding occurred were performed in triplicate, whereas non-binding experiments were performed in duplicate.” for “Corp.).”

ING3 PHD W47A = target: T5, ING3 PHD W47A (Homo sapiens, UniProt Q9NXR8, W401A); experiment: ITC of ING3 PHD mutant with H3K4me3 peptide; assay type: binding; details: 5 °C, pH 7.0, triplicate
T5 construct: The ING3 PHD finger region (residues 360–409) was amplified using PCR; GST (N, cleaved yes); made in house; host or cells: Escherichia coli Rosetta 2(DE3)pLysS
Description: as §2
as §1, with “Corp.). All experiments where binding occurred were performed in triplicate, whereas non-binding experiments were performed in duplicate.” for “Corp.).”

ING3 PHD P43A = target: T6, ING3 PHD P43A (Homo sapiens, UniProt Q9NXR8, P397A); experiment: ITC of ING3 PHD mutant with H3K4me3 peptide; assay type: binding
T6 construct: The ING3 PHD finger region (residues 360–409) was amplified using PCR; GST (N, cleaved yes); made in house; host or cells: Escherichia coli Rosetta 2(DE3)pLysS
Description: as §2
as §1, with “Corp.). All experiments where binding occurred were performed in triplicate, whereas non-binding experiments were performed in duplicate.” for “Corp.).”

ING3 PHD Y8A = target: T7, ING3 PHD Y8A (Homo sapiens, UniProt Q9NXR8, Y362A); experiment: ITC of ING3 PHD mutant with H3K4me3 peptide; assay type: binding; details: 5 °C, pH 7.0, triplicate
T7 construct: The ING3 PHD finger region (residues 360–409) was amplified using PCR; GST (N, cleaved yes); made in house; host or cells: Escherichia coli Rosetta 2(DE3)pLysS
Description: as §2
as §1, with “Corp.). All experiments where binding occurred were performed in triplicate, whereas non-binding experiments were performed in duplicate.” for “Corp.).”

ING3 PHD S15A = target: T8, ING3 PHD S15A (Homo sapiens, UniProt Q9NXR8, S369A); experiment: ITC of ING3 PHD mutant with H3K4me3 peptide; assay type: binding
T8 construct: The ING3 PHD finger region (residues 360–409) was amplified using PCR; GST (N, cleaved yes); made in house; host or cells: Escherichia coli Rosetta 2(DE3)pLysS
Description: as §2
as §1, with “Corp.). All experiments where binding occurred were performed in triplicate, whereas non-binding experiments were performed in duplicate.” for “Corp.).”

ING3 PHD W31A = target: T9, ING3 PHD W31A (Homo sapiens, UniProt Q9NXR8, W385A); experiment: ITC of ING3 PHD mutant with H3K4me3 peptide; details: 5 °C, pH 7.0, non-binding in duplicate
T9 construct: The ING3 PHD finger region (residues 360–409) was amplified using PCR; GST (N, cleaved yes); made in house; host or cells: Escherichia coli Rosetta 2(DE3)pLysS
Description: as §2
as §1, with “This was subtracted from the experimental data as part of data analysis.” left out, “Corp.). […]” for “Corp.).”

T1 sequence (Q9NXR8 360-409): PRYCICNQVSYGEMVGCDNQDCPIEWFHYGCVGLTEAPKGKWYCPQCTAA
T2 sequence (Q9NXR8 360-409): as above
T3 sequence (Q9NXR8 360-409): as above
T8 sequence (Q9NXR8 360-409 S369A): as the sequence (Q9NXR8 360-409) above, with S10A counted along it
T6 sequence (Q9NXR8 360-409 P397A): as the sequence (Q9NXR8 360-409) above, with P38A counted along it
T9 sequence (Q9NXR8 360-409 W385A): as the sequence (Q9NXR8 360-409) above, with W26A counted along it
T5 sequence (Q9NXR8 360-409 W401A): as the sequence (Q9NXR8 360-409) above, with W42A counted along it
T4 sequence (Q9NXR8 360-409 D380H): as the sequence (Q9NXR8 360-409) above, with D21H counted along it
T7 sequence (Q9NXR8 360-409 Y362A): as the sequence (Q9NXR8 360-409) above, with Y3A counted along it

Compound	chemical shift perturbations in 1H-15N HSQC upon addition of peptide [1]	Kd (ING3 PHD finger)	Kd [2]	further results
C[C@H](N)C(=O)N[C@@H](CCCNC(=N)N)C(=O)N[C@H](C(=O)N[C@@H](CCCCN)C(=O)N[C@@H](CCC(N)=O)C(=O)N[C@H](C(=O)N[C@@H](C)C(=O)N[C@@H](CCCNC(=N)N)C(=O)N[C@@H](CCCCN)C(=O)N[C@@H](CO)C(=O)N[C@H](C(=O)NCC(N)=O)[C@@H](C)O)[C@@H](C)O)[C@@H](C)O [H3 unmodified]	Chemical shift perturbations were induced	132 ± 13.5 µM	181 ± 19.2 µM	
CNCCCC[C@H](NC(=O)[C@@H](NC(=O)[C@H](CCCNC(=N)N)NC(=O)[C@H](C)N)[C@@H](C)O)C(=O)N[C@@H](CCC(N)=O)C(=O)N[C@H](C(=O)N[C@@H](C)C(=O)N[C@@H](CCCNC(=N)N)C(=O)N[C@@H](CCCCN)C(=O)N[C@@H](CO)C(=O)N[C@H](C(=O)NCC(N)=O)[C@@H](C)O)[C@@H](C)O [H3K4me1]	Chemical shift perturbations were induced	21.4 ± 3.51 µM	23.2 ± 0.8 µM	
C[C@H](N)C(=O)N[C@@H](CCCNC(=N)N)C(=O)N[C@H](C(=O)N[C@@H](CCCCN(C)C)C(=O)N[C@@H](CCC(N)=O)C(=O)N[C@H](C(=O)N[C@@H](C)C(=O)N[C@@H](CCCNC(=N)N)C(=O)N[C@@H](CCCCN)C(=O)N[C@@H](CO)C(=O)N[C@H](C(=O)NCC(N)=O)[C@@H](C)O)[C@@H](C)O)[C@@H](C)O [H3K4me2]	Chemical shift perturbations were induced	4.05 ± 0.53 µM	2.99 ± 0.33 µM	
C[C@H](N)C(=O)N[C@@H](CCCNC(=N)N)C(=O)N[C@H](C(=O)N[C@@H](CCCC[N+](C)(C)C)C(=O)N[C@@H](CCC(N)=O)C(=O)N[C@H](C(=O)N[C@@H](C)C(=O)N[C@@H](CCCNC(=N)N)C(=O)N[C@@H](CCCCN)C(=O)N[C@@H](CO)C(=O)N[C@H](C(=O)NCC(N)=O)[C@@H](C)O)[C@@H](C)O)[C@@H](C)O [H3K4me3]	Chemical shift perturbations were induced	0.63 ± 0.11 µM	0.93 ± 0.04 µM	Kd (ING3 PHD D26H): 1.93 ± 0.26 µM; Kd (ING3 PHD W47A): 48.31 ± 0.23 µM; Kd (ING3 PHD P43A; 5 °C, pH 7.0, triplicate): 2.45 ± 0.27 µM; drop in binding affinity versus WT (ING3 PHD P43A; ITC): 2–3 fold; Kd (ING3 PHD Y8A): 46 ± 2.99 µM; Kd (ING3 PHD S15A; 5 °C, pH 7.0, triplicate): 1.5 ± 0.01 µM; drop in binding affinity versus WT (ING3 PHD S15A; ITC): 2–3 fold and 2 fold; ITC KD (ING3 PHD W31A): no recognition of this ligand; also recorded: No binding; association stronger than with the unmodified histone H3 ([2]; abstract, method not specified (Trp fluorescence and ITC)): about 200 fold
GKGGKGLGKGGAKR [H4 unmodified, unmodified histone H4 tail peptide residues 4–17, amidated C terminus]	No significant resonance shifts			ITC KD [2]: No binding was observed; ITC KD ([2]; listed as H4 unmodified(4–17)): No binding
